Source: paper PMC3946379 (Archives of biochemistry and biophysics, 2013)

Molecular target: Aspartate aminotransferase (AAT) (Escherichia coli, UniProt P00509)
Test: N-15 NMR of crystalline enzyme
Type: binding
Settings: PLP form, low pH; closed conformation; own earlier work reviewed

Aspartate aminotransferase (AAT), sequence (P00509 whole entry): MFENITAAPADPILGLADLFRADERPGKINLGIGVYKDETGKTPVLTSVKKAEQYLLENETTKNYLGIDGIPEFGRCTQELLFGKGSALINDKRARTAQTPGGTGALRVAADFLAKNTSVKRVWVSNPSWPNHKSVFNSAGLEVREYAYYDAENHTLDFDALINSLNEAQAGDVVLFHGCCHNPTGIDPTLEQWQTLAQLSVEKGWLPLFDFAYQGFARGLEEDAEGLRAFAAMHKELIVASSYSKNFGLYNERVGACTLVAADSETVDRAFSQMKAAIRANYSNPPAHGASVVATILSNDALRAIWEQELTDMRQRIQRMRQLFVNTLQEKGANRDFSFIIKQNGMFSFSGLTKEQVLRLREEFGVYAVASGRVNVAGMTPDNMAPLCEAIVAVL

O=C(O)/C=C\C(=O)O [maleate]
N-15 NMR of crystalline enzyme: In crystalline samples of both the unliganded and maleate-liganded enzyme forms at low pH
